Test results published in US20210353566A1, “THE USE OF CHOLINE SUPPLEMENTATION AS THERAPY FOR APOE4-RELATED DISORDERS” (Massachusetts Institute of Technology, priority 2020, published 2021).

Experiments:
APOE4-expressing yeast = experiment: Growth rate of APOE4-expressing yeast in minimal CSM media; assay type: cell-based; settings: ethanolamine 1 mM, choline chloride 1 mM, choline bitartrate 100 μg/ml, compared to APOE3 strain
Excerpt: The data was normalized to the growth of untreated yeast strain expressing GFP (control). Data are represented as mean±SD, n=3. […] Data is represented as mean±SD, n=6 (Student's t-test, ns p>0.05; *** p≤0.001).
In order to explore APOE4-mediated lipid dysregulation in an unbiased manner, yeast were built and interrogated that express APOE3 or APOE4 in to the secretory pathway.

EFAD mice = test system: EFAD mice
Excerpt: FIGS. 7A-7C show graphs depicting mice weight over time. FIG. 7A depicts mice fed a high choline diet (3.4 g/kg choline chloride) and minimum recommended choline diet (0.7 g/kg choline chloride) for one month. FIG. 7B depicts mice fed a sub-recommended choline diet (0.1 g/kg choline chloride) compared to standard choline (1.1 g/kg choline chloride) for one month. FIG. 7C depicts mice fed a high choline diet (3.4 g/kg choline chloride) and minimum recommended choline diet (0.7 g/kg choline chloride) for three months.
The “EFAD” APOE knock-in mouse were selected, where the endogenous Apoe locus is replaced with the human isoform of APOE2, APOE3, or APOE4 in 5×FAD mice, and where APOE isoform effects on disease progression have been documented (Tai et al, 2017). Custom chow containing the National Research Council (NRC) minimum, (0.7 g/kg choline chloride) and NRC maximum (3.4 g/kg choline chloride) was manufactured and fed these to EFAD mice for 4-12 weeks (˜84 days).

APOE4 astrocytes [1] = experiment: Lipid droplet number (LipidTox) in iPSC-derived APOE4 astrocytes in supplemented media; assay type: cell-based, human; settings: for LD number per cell: APOE4 astrocytes, supplemented media (CDP-choline 100 μM) vs vehicle
Experimental: (§1) Right, quantification of the lipid droplet number per cell (n=4 experiments). […] Lipid were extracted from APOE3 and APOE4 iPSC-derived astrocytes grown in a regular media or the media supplemented with CDP-choline (100 μM). Data is represented as mean±SD, n=3 experiments.

APOE4 microglia = settings: interferon gamma
Excerpt: Data is represented as mean±SD, n=3-5 (ANOVA with multiple comparisons, * p≤0.05, ** p≤0.01).
Many AD risk factors are expressed in microglia including APOE, which along with TREM2, coordinates the transition from homeostatic to disease-associated state (Kraseman et al, 2017; Keren-Shaul et al, 2017).

APOE3 astrocytes = experiment: Lipid droplet quantification (LipidTox) in iPSC-derived astrocytes treated with oleic acid; assay type: cell-based, human; settings: oleic acid 20 μM vs vehicle
Excerpt: (§2) FIG. 1A is a schematic depicting the use of isogenic astrocytes derived from patient-derived iPSCs and the lipidomic analysis. FIG. 1B is a heatmap showing the fold change (log 2) between APOE4/APOE4 and APOE3/APOE3 in abundance of phospholipids (˜150 lipid species, upper panel) and triglycerides (˜120 species, lower panel). FIG. 1C is a graph presenting a fold change difference of the number of unsaturated bonds in fatty acids attached to triglycerides (TAGs). […] Data is represented as mean±SD (Student's t-test, **** p≤0.0001). FIG. 1E is a fluorescent microscopy images of the APOE3/APOE3 and APOE4/APOE4 astrocytes stained with an anti-Perilipin 2 antibody. Right, quantification of the Perilipin-2 foci per cell (each point (n) is an average of four wells, n=4). Data is represented as mean±SD (Student's t-test, **** p≤0.0001). FIG. 1F is a quantification of lipid droplets in astrocytes treated with vehicle (control) or with oleic acid (20 μM) (n=4 experiments).
(§3) APOE is expressed in several organs, with the highest expression in the liver, followed by the brain. In the brain, astrocytes and to some extent microglia are the major cell types that express APOE in the brain (Kim, Basak et al. 2009). It was hypothesized that APOE4-mediated lipid dysregulation contributes to its role as a disease risk factor. […]

APOE4 astrocytes [2] = experiment: as above; assay type: cell-based, human; settings: oleic acid 20 μM vs vehicle
Excerpt: as §2, §3

APOE4 astrocytes [3] = experiment: Intracellular TAGs and their unsaturation extracted from iPSC-derived astrocytes; assay type: cell-based, human; settings: CDP-choline 100 μM vs regular media
Experimental: as §1

[4] = chow 0.7 g/kg and 3.4 g/kg choline chloride, 4-12 weeks
[5] = diets 0.1, 0.7, 1.1, 3.4 g/kg choline chloride, one or three months

C[N+](C)(C)CCO.O=C([O-])C(O)C(O)C(=O)O (stereo not shown) [choline bitartrate]
growth of APOE4 yeast in supplemented media (APOE4-expressing yeast): sufficient to suppress the APOE4-associated growth defect

C[N+](C)(C)CCO.[Cl-] [choline chloride]
growth of APOE4 yeast in supplemented media (APOE4-expressing yeast): sufficient to suppress the APOE4-associated growth defect | general health (EFAD mice; [4]): general health appeared normal | toxicity (EFAD mice; [4]): no clear indication of toxicity | body condition or appetite (EFAD mice; [5]): no significant defects | mice weight over time (EFAD mice; [5]): gained appropriate weight | LD number per cell (APOE4 astrocytes [1]): significant decrease in the LD number, down to the levels found in APOE3-expressing astrocytes | lipid droplet accumulation, dose dependence (APOE4 astrocytes [1]; choline chloride 1 μM, 10 μM, 100 μM in astrocyte media, extended culture 14 days): improves lipid droplet accumulation in a dose-dependent manner | lipid droplet volume, APOE4 vs APOE3 microglia (APOE4 microglia; supplemented 65 μM Choline Chloride vs low 15 μM, extended culture): no difference is detected | IL-1b induction (APOE4 microglia; supplemented 250 μM Choline Chloride vs low 65 μM): rescued

CCCCCCCC/C=C\CCCCCCCC(=O)O [oleic acid]
increase of lipid droplet content (APOE3 astrocytes): ~1.5 fold | lipid droplet accumulation (APOE4 astrocytes [2]): ~3 fold

NCCO [ethanolamine]
growth of APOE4 yeast in supplemented media (APOE4-expressing yeast): did not influence growth

C[N+](C)(C)CCOP(=O)(O)OP(=O)([O-])OC[C@H]1O[C@@H](n2ccc(N)nc2=O)[C@H](O)[C@@H]1O [CDP-choline]
intracellular TAG levels (APOE4 astrocytes [3]): normalizes | unsaturation of TAGs (number of unsaturated bonds in fatty acids) (APOE4 astrocytes [3]): normalizes | LD number per cell (APOE4 astrocytes [1]): significant decrease in the LD number, down to the levels found in APOE3-expressing astrocytes
